{"source": "patent US8034371B2", "about": "“Intranasal compositions” (Archimedes Development Limited, priority 2003, dated 2011)", "key": {"[1]": {"experiment": "Semi-quantitative solubility of zolpidem tartrate in different cyclodextrin solutions (Example 1)", "type": "physicochemical", "conditions": "aqueous cyclodextrin solution, aqueous with cosolvent or surfactant or cyclodextrin, thermodynamic from solid, room temperature", "experimental": "A semi-quantitative comparison was made of the ability of different cyclodextrins to enhance the aqueous solubility of zolpidem tartrate.\nAqueous solutions were prepared containing 200, 300 and 400 mg/ml of three types of cyclodextrin. These were hydroxypropyl-β-cyclodextrin (HP-CD) (Cavamax® W7 HP Pharma, Wacker, Germany), methylated-β-cyclodextrin (M-CD) (Cavamax® W7 M Pharma, Wacker) and sulfobutylether-β-cyclodextrin (SBE-CD) (Captisol®, CyDex, USA). 25 mg samples of zolpidem tartrate (ZMC, Zheijang, Hangzhou, China) were added to a 0.5 ml portion of each cyclodextrin solution. The mixtures (containing 50 mg/ml drug) were stirred overnight at room temperature. If drug dissolved then more was added. If undissolved drug remained then an additional 0.5 ml of cyclodextrin solution was added and stirring continued. From this experiment an estimate could be made of zolpidem tartrate solubility in the different cyclodextrin solutions."}, "[2]": {"experiment": "Saturated solubility of zolpidem tartrate in SBE-CD solutions with and without chitosan, UV 296 nm (Example 2)", "type": "physicochemical", "conditions": "aqueous SBE-CD solution, 18 °C, aqueous with cosolvent or surfactant or cyclodextrin, thermodynamic from solid", "experimental": "A stock solution was prepared containing 400 mg/ml SBE-CD in water and then dilutions made to 100, 150, 200, 250 and 300 mg/ml. Into 2 ml portions of the stock and diluted SBE-CD solutions was dissolved 10 mg of chitosan glutamate (Protasan UPG213, NovaMatrix, Drammen, Norway). To each of these samples of SBE-CD/chitosan solution and to each of six chitosan-free 2 ml samples of SBE-CD solutions were added 140 mg samples of zolpidem tartrate. The samples were left to stir overnight at room temperature (18° C.). If during this time all the drug dissolved, further amounts were added until a suspension was formed (i.e. saturated drug solution formed). After further stirring for up to 72 hours, suspensions were filtered (0.45 μm filter, Gelman, Portsmouth, UK) to recover saturated zolpidem tartrate solutions. The filtrate samples were diluted in water and the UV absorbance at 296 nm measured. By reference to a calibration curve of UV absorbance (296 nm) vs. zolpidem concentration, the concentration of zolpidem in the samples was calculated. Solubility data are presented in Table 2 and presented graphically in FIG. 1."}, "[3]": {"experiment": "Pharmacokinetic performance of intranasal and IV zolpidem formulations in sheep (Example 6)", "conditions": "for Tmax: intranasal, zolpidem dose 20 mg, mean n = 5", "experimental": "A group of five female sheep was used, each weighing around 45 kg. The formulations were administered to a randomised cross-over design. […] This dose was provided by transferring 3.5 ml of the test formulation into a glass bottle, attaching a Valois VP7 spray pump and actuator to the bottle, priming the pump and then administering two 0.1 ml sprays into each nostril.\nBlood samples were collected over a 360 minute period following dosing and plasma separated. Plasma samples were assayed by an HPLC method for zolpidem content. Pharmacokinetic parameters were calculated from the plasma data."}}, "note": "Structures can show the parent of a compound that is named as a salt."}
{"smiles": "Cc1ccc(-c2nc3ccc(C)cn3c2CC(=O)N(C)C)cc1", "note": "[zolpidem tartrate]", "values": [{"measurement": "solubility", "setting": "[1]; HP-CD 200 mg/ml", "value": "25 to 31", "unit": "mg/mL"}, {"measurement": "solubility", "setting": "[1]; HP-CD 300 mg/ml", "value": "31 to 36", "unit": "mg/mL"}, {"measurement": "solubility", "setting": "[1]; HP-CD 400 mg/ml", "value": "36 to 50", "unit": "mg/mL"}, {"measurement": "solubility", "setting": "[1]; M-CD 200 mg/ml", "value": "25 to 31", "unit": "mg/mL"}, {"measurement": "solubility", "setting": "[1]; M-CD 300 mg/ml", "value": "31 to 36", "unit": "mg/mL"}, {"measurement": "solubility", "setting": "[1]; M-CD 400 mg/ml", "value": "31 to 36", "unit": "mg/mL"}, {"measurement": "solubility", "setting": "[1]; SBE-CD 200 mg/ml", "value": "> 50", "unit": "mg/mL"}, {"measurement": "solubility", "setting": "[1]; SBE-CD 300 mg/ml", "value": "50 to 56", "unit": "mg/mL"}, {"measurement": "solubility", "setting": "[1]; SBE-CD 400 mg/ml", "value": "~60", "unit": "mg/mL"}, {"measurement": "solubility", "setting": "[2]; SBE-CD 100 mg/ml, 5 mg/ml chitosan glutamate, read-out: Zolpidem tartrate solubility in presence of 5 mg/ml chitosan glutamate", "value": 46.2, "unit": "mg/mL"}, {"measurement": "solubility", "setting": "[2]; SBE-CD 100 mg/ml, no chitosan, read-out: Zolpidem tartrate solubility", "value": 41.9, "unit": "mg/mL"}, {"measurement": "solubility", "setting": "[2]; SBE-CD 150 mg/ml, 5 mg/ml chitosan glutamate, read-out: Zolpidem tartrate solubility in presence of 5 mg/ml chitosan glutamate", "value": 51.9, "unit": "mg/mL"}, {"measurement": "solubility", "setting": "[2]; SBE-CD 150 mg/ml, no chitosan, read-out: Zolpidem tartrate solubility", "value": 46.5, "unit": "mg/mL"}, {"measurement": "solubility", "setting": "[2]; SBE-CD 200 mg/ml, 5 mg/ml chitosan glutamate, read-out: Zolpidem tartrate solubility in presence of 5 mg/ml chitosan glutamate", "value": 55.6, "unit": "mg/mL"}, {"measurement": "solubility", "setting": "[2]; SBE-CD 200 mg/ml, no chitosan, read-out: Zolpidem tartrate solubility", "value": 57.3, "unit": "mg/mL"}, {"measurement": "solubility", "setting": "[2]; SBE-CD 250 mg/ml, 5 mg/ml chitosan glutamate, read-out: Zolpidem tartrate solubility in presence of 5 mg/ml chitosan glutamate", "value": 55.9, "unit": "mg/mL"}, {"measurement": "solubility", "setting": "[2]; SBE-CD 250 mg/ml, no chitosan, read-out: Zolpidem tartrate solubility", "value": 56.1, "unit": "mg/mL"}, {"measurement": "solubility", "setting": "[2]; SBE-CD 300 mg/ml, 5 mg/ml chitosan glutamate, read-out: Zolpidem tartrate solubility in presence of 5 mg/ml chitosan glutamate", "value": 63.7, "unit": "mg/mL"}, {"measurement": "solubility", "setting": "[2]; SBE-CD 300 mg/ml, no chitosan, read-out: Zolpidem tartrate solubility", "value": 57.5, "unit": "mg/mL"}, {"measurement": "solubility", "setting": "[2]; SBE-CD 400 mg/ml, 5 mg/ml chitosan glutamate, read-out: Zolpidem tartrate solubility in presence of 5 mg/ml chitosan glutamate", "value": 68.1, "unit": "mg/mL"}, {"measurement": "solubility", "setting": "[2]; SBE-CD 400 mg/ml, no chitosan, read-out: Zolpidem tartrate solubility", "value": 69, "unit": "mg/mL"}]}
{"smiles": "Cc1ccc(-c2nc3ccc(C)cn3c2CC(=O)N(C)C)cc1", "note": "[zolpidem, N,N,6-trimethyl-2-(4-methylphenyl)-imidazo[1,2-a]pyridine-3-acetamide]", "values": [{"measurement": "Tmax", "setting": "[3]; female, plasma, inhaled or intranasal, 20 mg, Tmax", "value": 13, "unit": "min"}, {"measurement": "Effect of inclusion of chitosan on bioavailability", "setting": "[3]; intranasal solution with vs without chitosan", "value": "significantly enhanced"}, {"measurement": "Tmax", "setting": "[3]", "value": 16, "unit": "min"}]}
